# Numbers after ± are expanded uncertainties.
# What was measured:
# [1] = refractive index (Na D-line) (dimensionless); xn = mol fraction of the nth substance listed; settings: 313.15 K; 101 kPa; Liquid; Standard Abbe refractometry; x1 = 0.333
# [2] = xn = mol fraction of the nth substance listed; settings: 313.15 K; 101 kPa; Liquid; Vibrating tube method; x1 = 0.333
smiles,measurement,setting,value
C[N+](C)(C)C.[Cl-] [tetramethylammonium chloride] + OCCO,refractive index,[1],1.45599 ± 0.00033
same,mass density,[2],1072.19 ± 0.19 kg/m3

# Source: the NIST ThermoML archive (doi:10.1016/j.fluid.2018.01.019)
